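Following 48 hours of exposure in 96-well plates, responses at five concentrations were used to interpolate endpoints linearly. At the GI50, growth is halved. TGI marks complete inhibition of growth.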
Key:
Assay in all cases: DTP human tumour cell line panel, 48 h
[1] = test system: DU-145 prostate
[2] = test system: UACC-257 melanoma
[3] = test system: SNB-19 CNS
[4] = test system: HCT-116 colon
[5] = test system: SF-539 CNS
[6] = test system: COLO 205 colon
[7] = test system: MCF7 breast
[8] = test system: NCI-H460 lung
[9] = test system: HCT-15 colon
[10] = test system: RPMI-8226 leukemia
[11] = test system: CCRF-CEM leukemia
[12] = test system: KM12 colon
[13] = test system: HCC-2998 colon
[14] = test system: SR leukemia
[15] = test system: OVCAR-4 ovarian
[16] = test system: SK-MEL-28 melanoma
[17] = test system: K-562 leukemia
[18] = test system: MDA-MB-231 breast
[19] = test system: U251 CNS
[20] = test system: A498 renal
[21] = test system: OVCAR-3 ovarian
[22] = test system: MDA-MB-435
[23] = test system: MALME-3M melanoma
[24] = test system: HS 578T breast
[25] = test system: BT-549 breast
[26] = test system: UO-31 renal
[27] = test system: NCI-H522 lung
[28] = test system: NCI/ADR-RES ovarian
[29] = test system: UACC-62 melanoma
[30] = test system: MOLT-4 leukemia
[31] = test system: NCI-H23 lung
[32] = test system: IGROV1 ovarian
[33] = test system: OVCAR-8 ovarian
[34] = test system: HT29 colon
[35] = test system: TK-10 renal
[36] = test system: SF-295 CNS
[37] = test system: RXF 393 renal
[38] = test system: T-47D breast
[39] = test system: NCI-H226 lung
[40] = test system: OVCAR-5 ovarian
[41] = test system: SN12C renal
[42] = test system: ACHN renal
[43] = test system: HL-60(TB) leukemia
[44] = test system: A549 NSCLC
[45] = test system: SF-268 CNS
[46] = test system: SK-MEL-5 melanoma
[47] = test system: SNB-75 CNS
[48] = test system: CAKI-1 renal
[49] = test system: HOP-62 NSCLC
[50] = test system: SW-620 colon
[51] = test system: 786-0 renal
[52] = test system: M14 melanoma
[53] = test system: SK-OV-3 ovarian
[54] = test system: PC-3 prostate

## COc1cc(-c2cc(-c3nc4ccccc4[nH]3)[nH]n2)cc(OC)c1OC
[1]
  GI50: 3.9 µM
  TGI: 16.7 µM
[2]
  GI50: 2.1 µM
  TGI: 6.12 µM
[3]
  GI50: 17.8 µM
  TGI: > 100 µM
[4]
  GI50: 3.16 µM
  TGI: 16.8 µM
[5]
  GI50: 5.11 µM
  TGI: 18.9 µM
[6]
  GI50: 3.98 µM
  TGI: 15.6 µM
[7]
  GI50: 2.79 µM
  TGI: 10.3 µM
[8]
  GI50: 3.64 µM
  TGI: 21.5 µM
[9]
  GI50: 3.43 µM
  TGI: 24.4 µM
[10]
  GI50: 1.2 µM
  TGI: 4.16 µM
[11]
  GI50: 2.12 µM
  TGI: 9.96 µM
[12]
  GI50: 3.15 µM
  TGI: 11.6 µM
[13]
  GI50: 7.1 µM
  TGI: 21.5 µM
[14]
  GI50: 3.32 µM
  TGI: > 100 µM
[15]
  GI50: 1.26 µM
  TGI: 7.03 µM
[16]
  GI50: 2.72 µM
  TGI: 9.71 µM
[17]
  GI50: 3.08 µM
  TGI: > 100 µM
[18]
  GI50: 3.22 µM
  TGI: 15.8 µM
[19]
  GI50: 3.73 µM
  TGI: 32.6 µM
[20]
  GI50: 1.51 µM
  TGI: 27.1 µM
[21]
  GI50: 4 µM
  TGI: 16.4 µM
[22]
  GI50: 2.35 µM
  TGI: 7.61 µM
[23]
  GI50: 1.95 µM
  TGI: 8.49 µM
[24]
  GI50: 6.89 µM
  TGI: > 100 µM
[25]
  GI50: 1.8 µM
  TGI: 8.11 µM
[26]
  GI50: 2.21 µM
  TGI: 12.2 µM
[27]
  GI50: 1.87 µM
  TGI: 8.81 µM
[28]
  GI50: 2.88 µM
  TGI: 8.49 µM
[29]
  GI50: 1.64 µM
  TGI: 4.66 µM
[30]
  GI50: 2.13 µM
  TGI: 5.17 µM
[31]
  GI50: 2.26 µM
  TGI: 14.4 µM
[32]
  GI50: 2.34 µM
  TGI: 15.4 µM
[33]
  GI50: 2.35 µM
  TGI: 7.74 µM
[34]
  GI50: 7.16 µM
  TGI: 51.2 µM
[35]
  GI50: 4.07 µM
  TGI: 22.8 µM
[36]
  GI50: 3.13 µM
  TGI: 14.7 µM
[37]
  GI50: 1.77 µM
  TGI: 11.4 µM
[38]
  GI50: 1.11 µM
  TGI: 7.61 µM
[39]
  GI50: 1.14 µM
  TGI: 7.26 µM
[40]
  GI50: 13 µM
  TGI: 32.7 µM
[41]
  GI50: 3.91 µM
  TGI: 20.4 µM
[42]
  GI50: 2.77 µM
  TGI: 14.2 µM
[43]
  GI50: 2.54 µM
  TGI: 10.5 µM
[44]
  GI50: 2.43 µM
  TGI: 15.1 µM
[45]
  GI50: 6.43 µM
  TGI: 21.9 µM
[46]
  GI50: 1.34 µM
  TGI: 3.94 µM
[47]
  GI50: 2.83 µM
  TGI: 12.8 µM
[48]
  GI50: 2.24 µM
  TGI: 14.4 µM
[49]
  GI50: 3.54 µM
  TGI: 16.7 µM
[50]
  GI50: 7.73 µM
  TGI: 30.3 µM
[51]
  GI50: 3.66 µM
  TGI: 15.5 µM
[52]
  GI50: 2.57 µM
  TGI: 11.6 µM
[53]
  GI50: 3.48 µM
  TGI: 9.74 µM
[54]
  GI50: 2.1 µM
  TGI: 8.54 µM
